Test results as given in patent US6500858B2, “Taxoid anti-tumor agents and pharmaceutical compositions thereof” (The Research Foundation of the state University of New York, priority 1994, dated 2002).
Values joined by “and” are separate entries in the source; they are usually repeats but may differ in a detail not shown here. Identical values can stand only once. Like-named read-outs stand apart in the source and are kept apart here.

Legend:
[1] = test system: LCC6-WT: human breast carcinoma; assay: cytotoxicity assay of second generation taxoids; type: cell-based; details: 72 h drug exposure; read-out: LCC6-WT IC50
Procedure: A cytotoxicity assay of these new second generation taxoids was performed on human breast cancer cell lines, LCC6-WT and LCC-MDR, and selected taxoids were also assayed for their potency against MCF7 and MCF7-R (Skehan, P., et al., J. Nat. Cancer Inst. 1990, 82, 1107-1112).

[2] = test system: MCF7-R (mammary carcinoma cells 180-fold resistant to adriamycin); assay: tumor cell growth inhibition (SRB, 72 h drug exposure); type: cell-based, human
Procedure: (§1) Lower numbers indicate higher potency. […] The data represent the mean values of at least three separate experiments. Lower numbers indicate greater activity.
(§2) Assessment of cell growth inhibition was determined according to the methods of Skehan et al., J. Nat. Cancer Inst. […] Briefly, cells were plated between 400 and 1200 cells/well in 96 well plates and incubated at 37° C. for 15-18 h prior to drug addition to allow attachment of cells. […] After a 72 h incubation, […] of ice-cold 50% TCA was added to each well and incubated for 1 h at 4° C. Plates were then washed 5 times with tap water to remove TCA, low-molecular-weight metabolites and serum proteins. Sulforhodamine B (SRB) (0.4%, […]) was added to each well. Following a 5 min incubation at room temperature, plates were rinsed 5 times with 0.1% acetic acid and air dried. […] Optical density was measured at 570 nm.

MCF7 (mammary carcinoma) = assay: as above; type: cell-based, human; details: read-out: MCF7 IC50
Procedure: as §1, §2

[3] = test system: docetaxel-resistant melanoma, B16/TXT; assay: intravenous administration to B16/TXT melanoma-bearing mice; type: in vivo, B6D2F1 female mice; details: days 3, 5, 7
Procedure: (§3) The efficacy of the test compounds on solid tumors in vivo was determined experimentally according to the following general experimental protocol:
(§4) The mice subjected to the experiment were subcutaneously grafted bilaterally with 30 to 60 mg of a tumor fragment on day zero. Mice bearing tumors were mixed before being subjected to the various treatments and controls. In the case of treatment of advanced tumors, tumors were allowed to develop to the desired size, and mice having insufficiently developed tumors were eliminated. The selected mice were distributed at random to undergo the treatments and controls. Mice not bearing tumors may also be subjected to the same treatments as the tumor-bearing mice in order to be able to dissociate the toxic effect from the specific effect on the tumor. Chemotherapy generally began from 3 to 22 days after grafting, depending on the type of tumor, and the mice were observed every day. The different mice groups were weighed 3 or 4 times a week until the maximum weight loss was attained (nadir), and the groups were then weighed at least once a week until the end of the trial.
(§5) The tumors were measured 2 or 3 times a week until the tumor reached approximately 2 grams, or until the animal died, if this occurred before the tumor reached 2 grams. The mice were autopsied when sacrificed.
(§6) The antitumor activity was determined in accordance with different parameters recorded such as dose (mg/kg), mode of administration, time of administration, cytotoxicity, toxicity and log10 cell kill.
SB-T-1213, SB-T-121303, SB-T-121304 and SB-T-1250 were evaluated in B6D2F1 female mice bearing the docetaxel-resistant melanoma, B16/TXT. The general experimental protocol was as described above. The compounds evaluated were administered intravenously on an intermittent schedule on days 3, 5, and 7 post tumor implantation.

B16 melanoma = assay: intravenous administration to mice bearing B16 melanoma; type: in vivo, B6D2F1 female mice; parameters: key to Responses (activity rating): A = active; HA = highly active
Procedure: as §3, §4, §5, §6
SB-T-1213, SB-T-121303, SB-T-121304 and SB-T-1250 were evaluated in B6D2F1 female mice bearing B16 melanoma. The general experimental protocol was as described above. The compounds evaluated were administered intravenously (iv) on an intermittent schedule on days 3, 5, and 7 post tumor implantation. With the exception of SB-T-1250, solutions of the compounds for administration were prepared in 5% ethanol, 5% polysorbate 80, and 90% glucose 5% water.

IC50 ([2]; Table 2) [nM]	IC50 (MCF7 (mammary carcinoma); Table 2) [nM]	Compound	IC50 [1] [nM]	further results
–	–	3′-Dephenyl-3′-(2-methylprop-1-enyl)-2-debenzoyl-2-(3-methoxybenzoyl)-10-cyclopropyldocetaxel [Taxoid 7m]	1	–
–	–	C/C=C/C(NC(=O)OC(C)(C)C)C(O)C(=O)OC1CC2(O)C(OC(=O)c3cccc(OC)c3)C3C4(OC(C)=O)COC4CC(O)C3(C)C(=O)C(OC(=O)CC)C(=C1C)C2(C)C (stereo not drawn) [Taxoid 7k, 3′-Dephenyl-3′-[(E)-prop-1-enyl]-2-debenzoyl-2-(3-methoxybenzoyl)-10-propanoyldocetaxel]	1.2	–
5.8	0.36	CC(=O)OC12COC1CC(O)C1(C)C(=O)C(OC(=O)N(C)C)C3=C(C)C(OC(=O)C(O)C(CC(C)C)NC(=O)OC(C)(C)C)CC(O)(C(OC(=O)c4ccccc4)C21)C3(C)C (stereo not drawn) [Taxoid Ie′, 3′-Dephenyl-3′-(2-methylpropyl)-10-N,N-dimethylcarbamoyldocetaxel]	–	–
–	–	CC(=O)OC1C(=O)C2(C)C(O)CC3OCC3(OC(C)=O)C2C(OC(=O)c2cccc(C)c2)C2(O)CC(OC(=O)C(O)C(C=C(C)C)NC(=O)OC(C)(C)C)C(C)=C1C2(C)C (stereo not drawn) [Taxoid 7q, 3′-Dephenyl-3′-(2-methylprop-1-enyl)-2-debenzoyl-2-(3-methylbenzoyl)-10-acetyldocetaxel]	1.5	IC50 ([2]; 72 h drug exposure, Table 3): 5 nM; IC50 (MCF7 (mammary carcinoma); 72 h drug exposure, Table 3): 0.8 nM
–	–	CCC(=O)OC1C(=O)C2(C)C(O)CC3OCC3(OC(C)=O)C2C(OC(=O)c2cccc(Cl)c2)C2(O)CC(OC(=O)C(O)C(C=C(C)C)NC(=O)OC(C)(C)C)C(C)=C1C2(C)C (stereo not drawn) [Taxoid 7d, 3′-Dephenyl-3′-(2-methylprop-1-enyl)-2-debenzoyl-2-(3-chlorobenzoyl)-10-propanoyldocetaxel]	0.8	–
6.35	0.48	COC(=O)OC1C(=O)C2(C)C(O)CC3OCC3(OC(C)=O)C2C(OC(=O)c2ccccc2)C2(O)CC(OC(=O)C(O)C(CC(C)C)NC(=O)OC(C)(C)C)C(C)=C1C2(C)C (stereo not drawn) [Taxoid If′, 3′-Dephenyl-3′-(2-methylpropyl)-10-methoxycarbonyldocetaxel]	–	–
4.91	0.13	CC(=O)OC12COC1CC(O)C1(C)C(=O)C(OC(=O)N(C)C)C3=C(C)C(OC(=O)C(O)C(C=C(C)C)NC(=O)OC(C)(C)C)CC(O)(C(OC(=O)c4ccccc4)C21)C3(C)C (stereo not drawn) [Taxoid Ie, 3′-Dephenyl-3′-(2-methyl-1-propenyl)-O-N,N-dimethylcarbamoyldocetaxel]	–	–
–	–	CCC(=O)OC1C(=O)C2(C)C(O)CC3OCC3(OC(C)=O)C2C(OC(=O)c2cccc(F)c2)C2(O)CC(OC(=O)C(O)C(CC(C)C)NC(=O)OC(C)(C)C)C(C)=C1C2(C)C (stereo not drawn) [Taxoid 7a, 3′-Dephenyl-3′-(2-methylpropyl)-2-debenzoyl-2-(3-fluorobenzoyl)-10-propanoyldocetaxel]	0.4	–
5.25	0.14	COC(=O)OC1C(=O)C2(C)C(O)CC3OCC3(OC(C)=O)C2C(OC(=O)c2ccccc2)C2(O)CC(OC(=O)C(O)C(C=C(C)C)NC(=O)OC(C)(C)C)C(C)=C1C2(C)C (stereo not drawn) [Taxoid If, 3′-Dephenyl-3′-(2-methyl-1-propenyl)-10-methoxycarbonyldocetaxel]	–	–
–	–	C=CCCC(NC(=O)OC(C)(C)C)C(O)C(=O)OC1CC2(O)C(OC(=O)c3cccc(OC)c3)C3C4(OC(C)=O)COC4CC(O)C3(C)C(=O)C(OC(=O)CC)C(=C1C)C2(C)C (stereo not drawn) [Taxoid 7h, 3′-Dephenyl-3′-(3-butenyl)-2-debenzoyl-2-(3-methoxybenzoyl)-10-propanoyldocetaxel]	0.9	IC50 ([2]; 72 h drug exposure, Table 3): 7.7 nM; IC50 (MCF7 (mammary carcinoma); 72 h drug exposure, Table 3): 2 nM
–	–	COc1cccc(C(=O)OC2C3C4(OC(C)=O)COC4CC(O)C3(C)C(=O)C(OC(C)=O)C3=C(C)C(OC(=O)C(O)C(C=C(C)C)NC(=O)OC(C)(C)C)CC2(O)C3(C)C)c1 (stereo not drawn) [Taxoid 7l, 3′-Dephenyl-3′-(2-methylprop-1-enyl)-2-debenzoyl-2-(3-methoxybenzoyl)-10-acetyldocetaxel]	0.6	IC50 ([2]; 72 h drug exposure, Table 3): 2.3 nM; IC50 (MCF7 (mammary carcinoma); 72 h drug exposure, Table 3): 0.8 nM
3.35	0.26	CC=CC(=O)OC1C(=O)C2(C)C(O)CC3OCC3(OC(C)=O)C2C(OC(=O)c2ccccc2)C2(O)CC(OC(=O)C(O)C(C=C(C)C)NC(=O)OC(C)(C)C)C(C)=C1C2(C)C (stereo not drawn) [Taxoid Id, 3′-Dephenyl-3′-(2-methyl-1-propenyl)-10-crotonoyldocetaxel]	–	–
2.84	0.35	CCC(=O)OC1C(=O)C2(C)C(O)CC3OCC3(OC(C)=O)C2C(OC(=O)c2ccccc2)C2(O)CC(OC(=O)C(O)C(CC(C)C)NC(=O)OC(C)(C)C)C(C)=C1C2(C)C (stereo not drawn) [Taxoid Ib′, 3′-dephenyl-3′-(2-methylpropyl)-10-propanoyldocetaxel]	–	–
4.33	0.51	CC(=O)OC12COC1CC(O)C1(C)C(=O)C(OC(=O)C3CC3)C3=C(C)C(OC(=O)C(O)C(CC(C)C)NC(=O)OC(C)(C)C)CC(O)(C(OC(=O)c4ccccc4)C21)C3(C)C (stereo not drawn) [Taxoid Ic′, 3′-Dephenyl-3′-(2-methylpropyl)-10-cyclopropanecarbonyldocetaxel]	–	–
–	–	CCC(=O)OC1C(=O)C2(C)C(O)CC3OCC3(OC(C)=O)C2C(OC(=O)c2cccc(F)c2)C2(O)CC(OC(=O)C(O)C(C=C(C)C)NC(=O)OC(C)(C)C)C(C)=C1C2(C)C (stereo not drawn) [Taxoid 7b, 3′-Dephenyl-3′-(2-methylprop-1-enyl)-2-debenzoyl-2-(3-fluorobenzoyl)-10-propanoyldocetaxel]	0.5	–
–	–	CCC(=O)OC1C(=O)C2(C)C(O)CC3OCC3(OC(C)=O)C2C(OC(=O)c2cccc(N=[N+]=[N-])c2)C2(O)CC(OC(=O)C(O)C(CC(C)C)NC(=O)OC(C)(C)C)C(C)=C1C2(C)C (stereo not drawn) [Taxoid 7n, 3′-Dephenyl-3′-(2-methylpropyl)-2-debenzoyl-2-(3-azidobenzoyl)-10-propanoyldocetaxel]	1.1	IC50 ([2]; 72 h drug exposure, Table 3): 2.1 nM; IC50 (MCF7 (mammary carcinoma); 72 h drug exposure, Table 3): 1 nM
–	–	C=CCC(NC(=O)OC(C)(C)C)C(O)C(=O)OC1CC2(O)C(OC(=O)c3cccc(OC)c3)C3C4(OC(C)=O)COC4CC(O)C3(C)C(=O)C(OC(=O)CC)C(=C1C)C2(C)C (stereo not drawn) [Taxoid 7i, 3′-Dephenyl-3′-(2-propenyl)-2-debenzoyl-2-(3-methoxybenzoyl)-10-propanoyldocetaxel]	1.2	IC50 ([2]; 72 h drug exposure, Table 3): 8.7 nM; IC50 (MCF7 (mammary carcinoma); 72 h drug exposure, Table 3): 0.8 nM
–	–	CCC(=O)O[C@H]1C(=O)[C@@]2(C)[C@H]([C@H](OC(=O)c3cccc(OC)c3)[C@]3(O)C[C@H](OC(=O)[C@H](O)[C@H](C=C(C)C)NC(=O)OC(C)(C)C)C(C)=C1C3(C)C)[C@]1(OC(C)=O)CO[C@@H]1C[C@@H]2O [SB-T-121303]	–	T/C ([3]; 0.7 mg/kg/adm.): 94%; drug related deaths (DD) ([3]; 1.9 mg/kg/adm.): ⅕; drug related deaths (DD) ([3]; 3.2 mg/kg/adm.): 100%; highest nontoxic dose [3]: 1.2 mg/kg/adm.; Responses (activity rating) (B16 melanoma; 1.9 mg/kg/adm.): A; T/C (B16 melanoma; 1.9 mg/kg/adm., days 3, 5, 7): 12%; log10 cell kill (B16 melanoma; 1.9 mg/kg/adm., days 3, 5, 7): 1.7; % body weight loss at nadir (B16 melanoma; 1.9 mg/kg/adm., days 3, 5, 7, 1.9 mg/kg): 16.9% and 16.9 (13) %; drug related deaths (DD) (B16 melanoma; 3.2 mg/kg/adm., days 3, 5, 7): 100%; highest nontoxic dose (B16 melanoma; days 3, 5, 7): 1.9 mg/kg/adm.
–	–	C=Cc1cccc(C(=O)OC2C3C4(OC(C)=O)COC4CC(O)C3(C)C(=O)C(OC(=O)CC)C3=C(C)C(OC(=O)C(O)C(C=C(C)C)NC(=O)OC(C)(C)C)CC2(O)C3(C)C)c1 (stereo not drawn) [Taxoid 7p, 3′-Dephenyl-3′-(2-methylprop-1-enyl)-2-debenzoyl-2-(3-ethenylbenzoyl)-10-propanoyldocetaxel]	2.9	–

Compound	IC50 ([2]; Table 2) [nM]	IC50 (MCF7 (mammary carcinoma); Table 2) [nM]	IC50 [1] [nM]	further results
CC(=O)OC12COC1CC(O)C1(C)C(=O)C(OC(=O)C3CC3)C3=C(C)C(OC(=O)C(O)C(C=C(C)C)NC(=O)OC(C)(C)C)CC(O)(C(OC(=O)c4ccccc4)C21)C3(C)C (stereo not drawn) [Taxoid Ic, 3′-Dephenyl-3′-(2-methyl-1-propenyl)-10-cyclopropanecarbonyldocetaxel]	2.11	0.2	–	times better activity than paclitaxel and docetaxel against drug-resistant human breast cells ([2]; MCF7-R): 142 times
